Numbered stars: 1 amine (or outer) side, 2 acyl side, 3 side chain; on linkers, the order of the positions; unused ones are H or OH. Peptide text beside a SMILES is read from it. CO = O=C([*:1])[*:2]
Molecular target: T1, human cathepsin L (Homo sapiens, UniProt P07711)
T1 construct: made in house
Test: human cathepsin L inhibitory action
Assay type: biochemical
Settings: recombinant human cathepsin L, substrate Z-Phe-Arg-NMec, pH 5.5, 30° C., 10 minutes
Description: The recombinant human cathepsin L obtained by the procedure described in Example 8 of the specification of EPC 931098792 (European Publication No. 0576953 A2) (which is incorporated herein by reference) was diluted to 1 μg/ml with a diluent (0.1% Brij35, Sigma). This diluted enzyme solution was admixed with 46 μl of said diluent, 2 μl of 0.1M DTT and 25 μl of an activator/buffer (340 mM sodium acetate, 60 mM acetic acid, 4 mM EDTA disodium, pH 5.5). Then, 1 μl of a solution of the test compound in dimethyl sulfoxide (DMSO) (10 ^-2 M) and 25 μl of 20 μM Z-phe-Arg-NMec (substrate solution) were added. The mixture was incubated at 30° C. for 10 minutes, after which 100 μl of a reaction stopper (100 mM sodium monochloroacetate, 30 mM sodium acetate, pH 4.3) was added. This reaction was carried out on a 96-well Fluoroplate (Labosystems).
After termination of the reaction, the intensity of fluorescence of liberated aminomethylcoumarin at 450 nm was measured at an excitation wavelength of 365 nm. As a blank experiment, 1 μl of DMSO not containing the test compound was added and the intensity of fluorescence after the reaction was taken as 100% activity. For a sample showing a residual activity of 10% or less, a further diluted solution was used to determine the residual activity by the same procedure as above. Then, IC50 values were calculated.

T1 sequence (P07711 114-333): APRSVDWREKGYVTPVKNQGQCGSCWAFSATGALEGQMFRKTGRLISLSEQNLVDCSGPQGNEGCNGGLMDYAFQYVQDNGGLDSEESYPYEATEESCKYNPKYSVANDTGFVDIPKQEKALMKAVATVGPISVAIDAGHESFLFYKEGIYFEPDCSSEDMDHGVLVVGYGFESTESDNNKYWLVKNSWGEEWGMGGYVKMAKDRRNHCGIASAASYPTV

Row | IC50 | Compound
1 | 30 nM | CC(C)[C@H](NC(=O)OCc1ccccc1)C(=O)N[C@H]1CCOC1O (stereo partly drawn) [Example 6]
2 | 6.9 nM | CC(C)C[C@H](NC(=O)Nc1cccc2ccccc12)C(=O)N[C@H]1CCOC1O (stereo partly drawn) [Example 17]
3 | 690 nM | CC(=O)O[C@@H]1OCC[C@@H]1NC(=O)[C@H](CC(C)C)NC(=O)c1ccccn1 [Example 64]
4 | 870 nM | CC(=O)O[C@@H]1OCC[C@@H]1NC(=O)[C@H](CC(C)C)NC(=O)c1cccnc1 [Example 62]
5 | 190 nM | COC1OCC[C@@H]1NC(=O)[C@H](CC(C)C)NC(=O)Nc1cccc2ccccc12 (stereo partly drawn) [Example 89, (3S)-2-methoxy-3-[[N-(1-naphthylcarbamoyl)-(L)-leucyl]amino]-tetrahydrofuran]
6 | 9.4 nM | O=C(COc1ccccc1)N[C@@H](Cc1ccccc1)C(=O)N[C@H]1CCOC1O (stereo partly drawn) [Example 14]
7 | 28 nM | O=C(N[C@@H](Cc1ccccc1)C(=O)N[C@H]1CCCOC1O)OCc1ccccc1 (stereo partly drawn) [Example 23]
8 | 32 nM | CCCC(CCC)C(=O)N[C@H](C(=O)N[C@H]1CCOC1O)C(C)C (stereo partly drawn) [Example 12]
9 | 8 nM | O=C(N[C@@H](Cc1ccccc1)C(=O)N[C@H]1CCOC1O)OCc1ccccc1 (stereo partly drawn) [Example 5]
10 | 57 nM | CC[C@H](C)[C@H](NS(=O)(=O)c1cccc2ccccc12)C(=O)N[C@H]1CCOC1O (stereo partly drawn) [Example 4]
11 | 52 nM | CC(C)C[C@H](NC(=O)OCc1ccccc1)C(=O)N[C@@H](CC(C)C)C(=O)N[C@H]1CCCOC1O (stereo partly drawn) [Example 38]

Row | Compound | IC50
12 | CC(C)(C)OC(=O)N[C@@H](Cc1ccccc1)C(=O)N[C@H]1CCOC1O (stereo partly drawn) [Example 1, (3S)-3-[[N-tert-butoxycarbonyl-(L)-phenylalanyl]amino]-2-hydroxytetrahydrofuran] | 30 nM
13 | CC(=O)OC1OCC[C@@H]1NC(=O)[C@@H](NC(=O)OCc1ccccc1)C(C)C (stereo partly drawn) [Example 25, (3S)-2-acetoxy-3-[[N-benzyloxycarbonyl-(L)-valyl]amino]tetrahydrofuran] | 450 nM
14 | CCOP(=O)(Cc1ccc(C(=O)N[C@@H](CC(C)C)C(=O)N[C@H]2CCOC2O)cc1)OCC (stereo partly drawn) [Example 42] | 29 nM

System: cathepsin L
Test: not given
Settings: reported as one of their inhibition activities; cited from earlier work

Row | Compound | cathepsin L inhibitory activity
15 | CC(=O)N[C@@H](CC(C)C)C(=O)N[C@@H](CC(C)C)C(=O)N[C@H](C=O)CCCNC(=N)N [leupeptin] | cathepsin L inhibitory activity
16 | CC(C)[C@H](NC(=O)[C@H](CCCNC(=N)N)NC(=O)N[C@@H](Cc1ccccc1)C(=O)O)C(=O)N[C@H](C=O)CCCNC(=N)N [antipain] ({Phe-CO}-Arg-Val-Arg-aldehyde) | cathepsin L inhibitory activity

System: mice
Test: oral toxicity in mice
Assay type: in vivo
Settings: 500 mg/kg
Source text: Moreover, its toxic potential is low. […] Therefore, the compound (Ia) or (Ib) of this invention can be used in the prophylaxis and therapy of osteoporosis in mammalian animals (e.g. mouse, rat, rabbit, dog, cat, cattle, swine and man).

Row | Compound | deaths after oral administration
17 | CCCC(CCC)C(=O)N[C@H](C(=O)N[C@H]1CCO[C@H]1OC(C)=O)C(C)C [Example 60] | killed no test animals

System: bone (antebrachial bones: radii, cubiti)
Test: bone resorption inhibitory action (45Ca release from cultured fetal rat bones)
Assay type: cell-based, Sprague-Dawley rat
Settings: 48 h, concentration 10 μM, 2 days culture, mean of 5 bone pieces, lower = stronger inhibition, p<0.05, p<0.01, ***, p<0.001 vs. control, read-out: Bone resorption Inhibitory Activity [45Ca release (Percent to control)]
Description: Bone resorption inhibitory activity was assayed by the method of Raisz [J. Clin. Invest. 44, 103-116 (1965) which is incorporated herein by reference]. Thus, a Sprague-Dawley rat on day 18 of gestation was subcutaneously dosed with 50 μCi of ^45 Ca (an isotope of calcium, dissolved in CaCl2). The following day, the abdomen was opened and the fetuses were aseptically extracted. Under the dissecting microscope, the bilateral antebrachial bones (radii, cubiti) were separated from the carcass and the connective tissues and cartilages were removed as far as possible to prepare bone culture specimens. Each of these bone specimens was put in 0.6 ml of BGJb medium (Fitton-Jackson modification; GIBCO Laboratories, USA) supplemented with bovine serum albumin (final concentration 2 mg/ml) and incubated at 37° C. for 24 hours. This bone was further cultured in the same medium containing the test compound (final concentration 10 μM or 30 μM) for 2 days. The percent ratio (%) of ^45 Ca released from the bone to the medium was calculated from the radioactivity count in the medium and that in the bone by means of the following equation. [formula]
As a control group, the bones from a fetus of the same litter were similarly cultured for 2 days. The mean ± standard deviation was calculated for 5 bone pieces per group and the percentage (%) of this value relative to the value of the control group was calculated.

Row | Compound | activity at 10 µM
18 | CC(C)C[C@H](NC(=O)OCc1ccccc1)C(=O)N[C@@H](CC(C)C)C(=O)N[C@H]1CCOC1O (stereo partly drawn) [Example 16] | 77%
19 | CCCC(CCC)C(=O)N[C@H](C(=O)N[C@H]1CCO[C@@H]1OC)C(C)C [Example 73, (2S,3S)-2-methoxy-3-[[N-valproyl-(L)-valyl]amino]tetrahydrofuran] | 79%
20 | CC(=O)OC1OCC[C@@H]1NC(=O)[C@@H](NC(=O)OCc1ccccc1)C(C)C (stereo partly drawn) [Example 25, (3S)-2-acetoxy-3-[[N-benzyloxycarbonyl-(L)-valyl]amino]tetrahydrofuran] | 75%
21 | CCCC(CCC)C(=O)N[C@H](C(=O)N[C@H]1CCOC1O)C(C)C (stereo partly drawn) [Example 12] | 64%
22 | CC(C)C[C@H](NC(=O)OCc1ccccc1)C(=O)N[C@H]1CCOC1O (stereo partly drawn) [Example 15] | 26%
23 | COC(=O)C[C@H](NC(=O)OCc1ccccc1)C(=O)N[C@H]1CCOC1OC (stereo partly drawn) [Example 74, (3S)-3-[[N-benzyloxycarbonyl-(L)-(3-methoxycarbonyl)alanyl]amino] -2-methoxytetrahydrofuran] | 78%
24 | CC(C)C[C@H](NS(=O)(=O)c1cccc2ccccc12)C(=O)N[C@H]1CCCOC1O (stereo partly drawn) [Example 35, (3S)-2-hydroxy-3-[[N-(1-naphthalenesulfonyl)-(L)-leucyl]amino]tetrahydropyran] | 82%
25 | CC(C)C[C@H](NC(=S)Nc1cccc2ccccc12)C(=O)N[C@H]1CCOC1O (stereo partly drawn) [Example 21] | 67%

Same assay, conditions: 48 h, concentration 30 μM, 2 days culture, mean of 5 bone pieces, lower = stronger inhibition, p<0.05, p<0.01 vs. control, read-out: Bone resorption Inhibitory Activity [45Ca release (Percent to control)]

Row | Compound | activity at 30 µM
26 | CC(C)C[C@H](NC(=O)Nc1cccc2ccccc12)C(=O)NC1CCOC1O (stereo partly drawn) [Example 32, 2-hydroxy-3-[[N-(1-naphthylcarbamoyl)-(L)-leucyl]amino]tetrahydrofuran] | 77%
27 | CC(=O)O[C@@H]1OCC[C@@H]1NC(=O)[C@H](CC(C)C)NC(=O)Nc1cccc2ccccc12 [Example 29, (2S,3S)-2-acetoxy-3-[[N-(1-naphthylcarbamoyl)-(L)-leucyl]amino]-tetrahydrofuran] | 67%
